Source: patent publication US20120077828A1, “CHEMICAL COMPOUNDS” (priority 2010, published 2012)

Target: T1, PERK (Homo sapiens, UniProt Q9NZJ5)
T1 construct: GST-PERK (536-1116) cytoplasmic domain was purchased from Invitrogen; purchased Invitrogen PV5106
T1 sequence (Q9NZJ5 536-1116): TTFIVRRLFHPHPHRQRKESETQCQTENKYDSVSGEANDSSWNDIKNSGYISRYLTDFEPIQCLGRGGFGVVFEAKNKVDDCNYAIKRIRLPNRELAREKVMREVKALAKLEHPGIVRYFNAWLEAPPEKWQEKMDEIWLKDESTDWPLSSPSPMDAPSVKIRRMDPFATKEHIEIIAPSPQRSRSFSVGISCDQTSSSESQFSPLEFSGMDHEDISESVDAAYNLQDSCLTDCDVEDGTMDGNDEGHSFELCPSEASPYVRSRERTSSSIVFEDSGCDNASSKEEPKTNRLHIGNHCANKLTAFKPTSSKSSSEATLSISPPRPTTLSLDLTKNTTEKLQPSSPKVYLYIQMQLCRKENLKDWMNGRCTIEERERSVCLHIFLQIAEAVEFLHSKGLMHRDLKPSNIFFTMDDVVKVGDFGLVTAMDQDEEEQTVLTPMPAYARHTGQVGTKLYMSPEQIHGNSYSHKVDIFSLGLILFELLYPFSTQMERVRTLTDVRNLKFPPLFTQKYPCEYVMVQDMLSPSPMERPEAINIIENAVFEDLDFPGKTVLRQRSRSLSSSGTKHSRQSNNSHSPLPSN
Test: PKR-like Endoplasmic Reticulum Kinase (PERK) Assay (HTRF Format)
Format: biochemical
Details: average, in at least one set of experimental runs; read-out: average pIC50 value against PERK (converted)
Protocol: PKR-like Endoplasmic Reticulum Kinase (PERK) Assay (HTRF Format)
Source of substrate: elF2α: 6-His-Full-length human elF2α is purified from baculovirus expression in Sf9 insect cells. The elF2 protein is buffer exchanged by dialysis into PBS, chemically modified by NHS-LC-Biotin and then buffer exchanged by dialysis into 50 mm TRIS pH 7.2/250 mM NaCl/5 mM DTT. Protein is aliquoted and stored at −80° C.
Assays were performed by adding GST-PERK solution to assay plates containing compounds and pre-incubated for 30 minutes at room temperature. The reaction is initiated by the addition of ATP and EIF2α substrate solution. Quench solution is added following a one hour incubation at room temperature. The plates are covered for 2 hours at room temperature prior to determination of signal. The resulting signal is quantified on a Viewlux Reader (PerkinElmer). The APC Signal is normalized to the Europium signal by transforming the data through an APC/Eu calculation.
Compounds under analysis were dissolved in DMSO to 1.0 mM and serially diluted 1 to 3 with DMSO through eleven dilutions. 0.1 μl of each concentration was transferred to the corresponding well of an assay plate. This creates a final compound concentration range from 0.00017 to 10 μM.
The data for concentration response curves were plotted as % Inhibition calculated with the data reduction formula 100*(1−(U1−C2)/(C1−C2)) versus concentration of compound where U is the unknown value, C1 is the average control value obtained for 1% DMSO, and C2 is the average control value obtained for 0.1 M EDTA. Data were fitted with a curve described by:
where A is the minimum y, B is the maximum y concentration [M], D is the slope factor, and x is the log10 of the compound.
In the above data, pIC50 is defined as −log(IC50) where the IC50 value is expressed in molar units.

SMILES: Cc1cccc(CC(=O)N2CCc3cc(-c4nn(C)c5ncnc(N)c45)ccc32)c1 [Example 18, 1-methyl-3-(1[(3-methylphenyl)acetyl]-2,3-dihydro-1H-indol-5-yl)-1H-pyrazolo[3,4-d]pyrimidin-4-amine]
- IC50: ≤ 1 nM

SMILES: Nc1ncnc2c1c(-c1ccc3c(c1)CCN3C(=O)Cc1cc(F)ccc1F)cn2C1CNC1 [Example 144, 7-(3-azetidinyl)-5-{1-[(2,5-difluorophenyl)acetyl]-2,3-dihydro-1H-indol-5-yl}-7H-pyrrolo[2,3-d]pyrimidin-4-amine]
- IC50: ≤ 0.316 nM

SMILES: Nc1ncnc2occ(-c3ccc4c(c3)CCN4C(=O)Cc3cc(F)cc(C(F)(F)F)c3)c12 [Example 119, 5-(1-{[3-fluoro-5-(trifluoromethyl)phenyl]acetyl}-2,3-dihydro-1H-indol-5-yl)furo[2,3-d]pyrimidin-4-amine]
- IC50: ≤ 2.51 nM

SMILES: Cn1cc(-c2ccc3c(c2)CCN3C(=O)Cc2cc(F)cc(F)c2)c2c(N)ncnc21 [Example 89, 5-{1-[(3,5-difluorophenyl)acetyl]-2,3-dihydro-1H-indol-5-yl}-7-methyl-7H-pyrrolo[2,3-d]pyrimidin-4-amine]
- IC50: ≤ 1 nM

SMILES: Cc1cccc(CC(=O)N2CCc3cc(-c4cn(C)c5ncnc(N)c45)ccc32)c1F [Example 71, 5-{1-[(2-fluoro-3-methylphenyl)acetyl]-2,3-dihydro-1H-indol-5-yl}-7-methyl-7H-pyrrolo[2,3-d]pyrimidin-4-amine]
- IC50: ≤ 0.316 nM

SMILES: Cn1cc(-c2ccc3c(c2)CCN3C(=O)Cc2cc(F)cc(Cl)c2)c2c(N)ncnc21 [Example 53, 5-{1-[(3-chloro-5-fluorophenyl)acetyl]-2,3-dihydro-1H-indol-5-yl}-7-methyl-7H-pyrrolo[2,3-d]pyrimidin-4-amine]
- IC50: ≤ 0.316 nM

SMILES: Cn1cc(-c2ccc3c(c2)CCN3C(=O)Cc2cccc(Cl)c2)c2c(N)ncnc21 [Example 46, 5-{1-[(3-chlorophenyl)acetyl]-2,3-dihydro-1H-indol-5-yl}-7-methyl-7H-pyrrolo[2,3-d]pyrimidin-4-amine]
- IC50: ≤ 0.316 nM

SMILES: Nc1ncc(-c2cn[nH]c2)c2scc(-c3ccc4c(c3)CCN4C(=O)Cc3ccccc3)c12 [Example 13, 3-[1-(phenylacetyl)-2,3-dihydro-1H-indol-5-yl]-7-(1H-pyrazol-4-yl)thieno[3,2-c]pyridin-4-amine]
- IC50: ≤ 1 nM

SMILES: Cc1cccc(CC(=O)N2CCc3c2ccc(-c2cn(C)c4ncnc(N)c24)c3F)n1 [Example 136, 5-{4-fluoro-1-[(6-methyl-2-pyridinyl)acetyl]-2,3-dihydro-1H-indol-5-yl}-7-methyl-7H-pyrrolo[2,3-d]pyrimidin-4-amine]
- IC50: ≤ 1 nM

SMILES: Nc1ncc(-c2ccncc2)c2scc(-c3ccc4c(c3)CCN4C(=O)Cc3ccccc3)c12 [Example 9, 3-[1-(phenylacetyl)-2,3-dihydro-1H-indol-5-yl]-7-(4-pyridinyl)thieno[3,2-c]pyridin-4-amine]
- IC50: ≤ 1 nM

SMILES: Cc1cc(F)cc(CC(=O)N2CCc3cc(-c4cn(C)c5ncnc(N)c45)ccc32)c1 [Example 45, 5-{1-[(3-fluoro-5-methylphenyl)acetyl]-2,3-dihydro-1H-indol-5-yl}-7-methyl-7H-pyrrolo[2,3-d]pyrimidin-4-amine]
- IC50: ≤ 0.316 nM

SMILES: Cc1cccc(CC(=O)N2CCc3cc(-c4cn(C)c5ncnc(N)c45)ccc32)c1C [Example 81, 5-{1-[(2,3-dimethylphenyl)acetyl]-2,3-dihydro-1H-indol-5-yl}-7-methyl-7H-pyrrolo[2,3-d]pyrimidin-4-amine]
- IC50: ≤ 1 nM

SMILES: Cn1cc(-c2ccc3c(c2)CCN3C(=O)Cc2cc(F)ccc2F)c2c(N)ncnc21 [Example 59, 5-{1-[(2,5-difluorophenyl)acetyl]-2,3-dihydro-1H-indol-5-yl}-7-methyl-7H-pyrrolo[2,3-d]pyrimidin-4-amine]
- IC50: ≤ 1 nM
